22 molecules from PubChem BioAssay AID248 (DTP/NCI, 2004) can be followed below.

Toxic doses and inconclusive results are not listed.

The test system of the test is L1210 leukemia ip in BDF1 mice, survival T/C. Put plainly: NCI In Vivo Anticancer Drug Screen. Data for tumor model L1210 Leukemia (intraperitoneal) in B6D2F1 (BDF1) mice. The following applies: endpoint: mean survival time, higher = longer survival. An outline of the steps: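 In this screen, tumor-bearing mice given compound are compared to those given vehicle, and their survival values are reported as a treated-to-control quotient.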

Setting [1] is: dose: 100.0 mg/kg/injection, schedule: Q01DX009 (ip), vehicle: saline.
Where [2] appears, read: dose: 100.0 mg/kg/injection, schedule: Q04DX003 (ip), vehicle: saline.
Where [3] appears, read: dose: 200.0 mg/kg/injection, schedule: Q01DX009 (ip), vehicle: saline.
Setting [4] is: dose: 200.0 mg/kg/injection, schedule: Q04DX003 (ip), vehicle: saline.
Setting [5] is: dose: 100.0 mg/kg/injection, schedule: Q04DX003 (ip), vehicle: saline with Tween-80.
The mark [6] stands for this setting: dose: 200.0 mg/kg/injection, schedule: Q04DX003 (ip), vehicle: saline with Tween-80.
The mark [7] stands for this setting: dose: 400.0 mg/kg/injection, schedule: Q04DX003 (ip), vehicle: saline with Tween-80.
Setting [8] is: dose: 50.0 mg/kg/injection, schedule: Q04DX003 (ip), vehicle: saline with Tween-80.
Setting [9] is: dose: 100.0 mg/kg/injection, schedule: Q01DX001 (ip), vehicle: carboxymethylcellulose (CMC).
[10] abbreviates: dose: 200.0 mg/kg/injection, schedule: Q01DX001 (ip), vehicle: carboxymethylcellulose (CMC).
Setting [11] is: dose: 400.0 mg/kg/injection, schedule: Q01DX001 (ip), vehicle: carboxymethylcellulose (CMC).
The mark [12] stands for this setting: dose: 400.0 mg/kg/injection, schedule: Q01DX009 (ip), vehicle: saline.
The mark [13] stands for this setting: dose: 400.0 mg/kg/injection, schedule: Q04DX003 (ip), vehicle: saline.
[14] abbreviates: dose: 100.0 mg/kg/injection, schedule: Q04DX002 (ip), vehicle: Klucel (hydroxypropylcellulose) (HPC).
[15] abbreviates: dose: 200.0 mg/kg/injection, schedule: Q04DX002 (ip), vehicle: Klucel (hydroxypropylcellulose) (HPC).
[16] abbreviates: dose: 400.0 mg/kg/injection, schedule: Q04DX002 (ip), vehicle: Klucel (hydroxypropylcellulose) (HPC).

As to `CCCCN(CCCC)C(=N)OC1CCCCC1`, the T/C runs as follows: (dose: 8.8 mg/kg/injection, schedule: Q01DX Z (ip), vehicle: methylcellulose (MC)) 93 % of control; (dose: 13.3 mg/kg/injection, schedule: Q01DX Z (ip), vehicle: methylcellulose (MC)) 91 % of control; (dose: 20.0 mg/kg/injection, schedule: Q01DX Z (ip), vehicle: methylcellulose (MC)) 97 % of control.

Consider `O=C(CCC[n+]1ccccc1)CC(O)(C(F)(F)F)C(F)(F)F`, for which the T/C is, setting by setting: (dose: 50.0 mg/kg/injection, schedule: Q01DX009 (ip), vehicle: saline) 105 % of control; under setting [1], 103 % of control; under setting [2], 103 % of control; under setting [3], 100 % of control; under setting [4], 106 % of control.

With `CCOC(=O)c1nnc(-c2ccccc2)[nH]c1=O`, the T/C runs as follows: (dose: 50.0 mg/kg/injection, schedule: Q01DX009 (ip), vehicle: Klucel (hydroxypropylcellulose) (HPC)) 92 % of control; (dose: 100.0 mg/kg/injection, schedule: Q01DX009 (ip), vehicle: Klucel (hydroxypropylcellulose) (HPC)) 103 % of control; (dose: 200.0 mg/kg/injection, schedule: Q01DX009 (ip), vehicle: Klucel (hydroxypropylcellulose) (HPC)) 103 % of control.

As to `C1=CC2C3C=CC(CC3)C2CC1` (stereo not drawn), the T/C reads like this: under setting [5], 106 % of control; under setting [6], 97 % of control; under setting [7], 87 % of control.

Consider `CCCCOP(=S)(OCCCC)[S][Hg][c]1ccco1`, for which the T/C was 97 % of control (dose: 25.0 mg/kg/injection, schedule: Q04DX002 (ip), vehicle: alcohol) and 97 % of control (dose: 50.0 mg/kg/injection, schedule: Q04DX002 (ip), vehicle: alcohol).

With `COC1OC2COC(c3ccccc3)OC2C(OC)C1O` (stereo not drawn), the T/C runs as follows: (dose: 12.5 mg/kg/injection, schedule: Q04DX002 (ip), vehicle: Klucel (hydroxypropylcellulose) (HPC)) 103 % of control; (dose: 25.0 mg/kg/injection, schedule: Q04DX002 (ip), vehicle: Klucel (hydroxypropylcellulose) (HPC)) 100 % of control; (dose: 50.0 mg/kg/injection, schedule: Q04DX002 (ip), vehicle: Klucel (hydroxypropylcellulose) (HPC)) 100 % of control.

As for `CN(C)S(=O)(=O)Oc1cccc([N+](=O)[O-])c1`, the T/C is, setting by setting: (dose: 25.0 mg/kg/injection, schedule: Q04DX003 (ip), vehicle: saline with Tween-80) 100 % of control; under setting [8], 104 % of control; under setting [5], 100 % of control.

On to `CC1(C)c2ccccc2C(C)(C(Cl)(Cl)Cl)c2ccc(Cl)cc21` (stereo not drawn), for which the T/C was 98 % of control (dose: 50.0 mg/kg/injection, schedule: Q01DX001 (ip), vehicle: carboxymethylcellulose (CMC)); 90 % of control under setting [9]; 92 % of control under setting [1]; 93 % of control under setting [10]; 95 % of control under setting [3]; 95 % of control under setting [11]. Under setting [12], the T/C was 97 % of control.

As to `COc1ccc(/C=C2\CSC/C(=C/c3ccc(OC)cc3)C2=O)cc1`, the T/C by setting is: under setting [1], 91 % of control; under setting [2], 95 % of control; under setting [3], 95 % of control; under setting [4], 94 % of control; under setting [12], 87 % of control; under setting [13], 97 % of control.

For `COC1OC(CO)C(NC(N)=O)C1O` (stereo not drawn), the T/C runs as follows: under setting [14], 105 % of control; under setting [15], 105 % of control; under setting [16], 111 % of control.

As for `O=C(C=C(C(F)(F)F)C(F)(F)F)/C=C/c1ccccc1`, the T/C (dose: 1.0 mg/kg/injection, schedule: Q01DX009 (ip), vehicle: other) was 97 % of control; the T/C (dose: 2.0 mg/kg/injection, schedule: Q01DX009 (ip), vehicle: other) was 109 % of control; the T/C (dose: 2.5 mg/kg/injection, schedule: Q04DX003 (ip), vehicle: other) was 97 % of control; the T/C (dose: 3.13 mg/kg/injection, schedule: Q01DX009 (ip), vehicle: other) was 102 % of control; the T/C (dose: 4.0 mg/kg/injection, schedule: Q01DX009 (ip), vehicle: other) was 97 % of control; the T/C (dose: 5.0 mg/kg/injection, schedule: Q04DX003 (ip), vehicle: other) is 97 % of control. Besides, the T/C was 92 % of control (dose: 10.0 mg/kg/injection, schedule: Q04DX003 (ip), vehicle: other) and 88 % of control (dose: 12.5 mg/kg/injection, schedule: Q04DX003 (ip), vehicle: other).

As to `O=C1C(n2ccc(=O)n(Cc3ccccc3)c2=O)CCN1CCO` (stereo not drawn), the T/C is 96 % of control under setting [2], 119 % of control under setting [4] and 102 % of control under setting [13].

With `CCOP(=S)(N/N=C1\CC2CCC1C2)OCC` (stereo not drawn), the T/C (dose: 100.0 mg/kg/injection, schedule: Q01DX001 (ip), vehicle: other) is 94 % of control.

`CCCCCCCCCCCCCCCCCCNC(=O)Nc1ccc(OC)cc1`: the T/C by setting is: under setting [14], 93 % of control; under setting [15], 104 % of control; under setting [16], 93 % of control.

Take `CCN(CC)CCOc1ccc(-c2ccccc2)cc1`: the T/C runs as follows: under setting [8], 98 % of control; under setting [5], 277 % of control.

With `C/C(CCc1c[nH]c2ccccc12)=N\O`, the T/C was 98 % of control (dose: 100.0 mg/kg/injection, schedule: Q04DX003 (sc), vehicle: olive oil, sesame oil, peanut oil); 98 % of control (dose: 200.0 mg/kg/injection, schedule: Q04DX003 (sc), vehicle: olive oil, sesame oil, peanut oil); 104 % of control (dose: 400.0 mg/kg/injection, schedule: Q04DX003 (sc), vehicle: olive oil, sesame oil, peanut oil).

On to `CCCCCCCCCCCCCCCCOP(=O)(O)OCCCCCCCCCCCCCCCC`, for which the T/C reads like this: (dose: 50.0 mg/kg/injection, schedule: Q01DX009 (ip), vehicle: saline with Tween-80) 98 % of control; (dose: 100.0 mg/kg/injection, schedule: Q01DX009 (ip), vehicle: saline with Tween-80) 91 % of control; under setting [5], 105 % of control; (dose: 200.0 mg/kg/injection, schedule: Q01DX009 (ip), vehicle: saline with Tween-80) 89 % of control; under setting [6], 90 % of control; (dose: 400.0 mg/kg/injection, schedule: Q01DX009 (ip), vehicle: saline with Tween-80) 93 % of control. The T/C under setting [7] was 95 % of control.

For the molecule `CCN(CC#N)c1ccc(Nc2cc(Cl)ccc2Cl)cc1`, the T/C (dose: 75.0 mg/kg/injection, schedule: Q01DX001 (ip), vehicle: other) is 107 % of control; the T/C (dose: 150.0 mg/kg/injection, schedule: Q01DX001 (ip), vehicle: other) is 96 % of control; the T/C (dose: 300.0 mg/kg/injection, schedule: Q01DX001 (ip), vehicle: other) was 100 % of control.

With `COc1ccc(NC(=O)N(C)Cc2ccccc2Cl)cc1`, the T/C by setting is: under setting [14], 96 % of control; under setting [15], 110 % of control; under setting [16], 104 % of control.

For `Nc1ccc2c(c1)-c1ccc(F)cc1C2=O`, the T/C under setting [9] is 91 % of control, the T/C under setting [10] is 91 % of control and the T/C under setting [11] is 89 % of control.

Consider `Nc1ccc(Cc2ccc(N)cc2[N+](=O)[O-])c([N+](=O)[O-])c1`, for which the T/C under setting [9] was 98 % of control, the T/C under setting [10] is 105 % of control and the T/C under setting [11] is 100 % of control.

For the molecule `O=[N+]([O-])c1ccc2c(c1)-c1ccccc1C2Cl` (stereo not drawn), the T/C by setting is: (dose: 100.0 mg/kg/injection, schedule: Q01DX005 (ip), vehicle: Klucel (hydroxypropylcellulose) (HPC)) 94 % of control; under setting [14], 111 % of control; (dose: 200.0 mg/kg/injection, schedule: Q01DX005 (ip), vehicle: Klucel (hydroxypropylcellulose) (HPC)) 91 % of control; under setting [15], 101 % of control; (dose: 400.0 mg/kg/injection, schedule: Q01DX005 (ip), vehicle: Klucel (hydroxypropylcellulose) (HPC)) 88 % of control; under setting [16], 96 % of control.
